We go through 1 compound from patent publication US20260297035A1, “PROTEIN KINASE INHIBITORS AND USES THEREOF” (DELiver Therapeutics, Inc., priority 2023, published 2026).

Read-outs that look alike come from different tables or passages of the source.

For one assay, the system named is NALM-21. In words: In vitro cytotoxic activity (CellTiterGlo), NALM-21 (ALL). Type of assay: cell-based. Conditions: Homo sapiens; 48-hours; read-out: NALM-21 LD50. How it is done: (§1) Non-metabolized targeted toxicity, or general toxicity, of compounds was assessed by treating a panel of selected cell lines in culture with a dilution series of test compounds and the lethal dose that will kill half of the cells (i.e., the LD50) was determined. Compounds herein were assayed against a panel of cytokine-independent Philadelphia chromosome (BCR-ABL1 translocation) positive (Ph+) leukemia and lymphoma cell lines along with several control cell lines that were ABL1-independent. The panel included murine cell lines BaF3-wildtype (wt), BaF3-mutants (BaF3-wt cells engineered to be reliant on various kinase domain mutations with the BCR-ABL1 fusion protein), and various ALL and CML human cell lines, including SD-1, TOM-1, NALM-21, K562, Jeko-1, BV173, and KCL-22.
(§2) To test the cytotoxic activity of compounds herein, 1.6E4 cells were plated in 96-well plates at a final volume of 135 μL per well. Compounds were then added to the wells. In general, final concentrations of compounds started at a maximum concentration of […] and were diluted by half-log concentrations down to a final concentration of 0.316 nM. However, different cell lines required varying drug concentration ranges for optimal LD50 calculations. To create half-log dilutions, 40 mM DMSO solutions of compounds were diluted in half-log iterations to generate 400× starting concentration of compounds in DMSO. The 400× compound solutions were then diluted by 40-fold by adding 5 μL of 400× DMSO stock to 195 μL cell culture media, generating 10× drug concentrations in cell culture media. Then 15 μL of the 10× drug solutions were added to the 135 μL volume of cell suspension, resulting in 1× final drug concentrations with 0.25% DMSO in all wells. 48-hours after adding compounds, cells were measured for relative viability to generate cytotoxicity curves associated with the varying concentrations of compounds. […] LD50 values were measured by normalizing luminescence intensity to the lowest drug concentration. GraphPad Prism was used to plot and calculate LD50 values from the cytotoxic kill curves. Curves were fit to a non-linear regression model, with compound concentration vs. response and variable slope (four parameters).

Another assay has as its target ABL1(wt) (Homo sapiens, UniProt P00519). The experiment in a line: Z′-LYTE assay (labeled peptide cleavage), ABL1(wt). Type of assay: biochemical. An excerpt: (§3) This Example describes a cell-free assay utilized to identify candidate compounds that bind to and inhibit protein kinase (PK) and PK variants. One assay is referred to as a “Z′-LYTE assay” and is an example of a labeled peptide cleavage assay. The fluorescence-based assay relies on the differential sensitivity of a small, dual-end-labelled peptide to cleavage by a protease, dependent on the phosphorylation state of the peptide (FIG. 1). The peptide substrate is end-labelled with two distinct fluorophores that comprise a Fluorescence Resonance Energy Transfer (FRET) pair.
(§4) In the absence of inhibitor, the kinase transfers the gamma-phosphate from ATP to the single, unique tyrosine, serine or threonine in the synthetic FRET peptide. The reaction conditions are titrated such that 10-40% of the peptide substrate is phosphorylated. In a second reaction, a site-specific protease that only recognizes and cleaves the non-phosphorylated FRET peptide is added. Cleavage interferes with FRET between the donor (i.e., coumarin) and the acceptor (i.e., fluorescein) fluorophores on the FRET-peptide substrate, unlike the phosphorylated, uncleaved peptide.
(§5) The Test Compounds are screened in 1% DMSO (final) in the well.
(§6) All Peptide/Kinase Mixtures are diluted to a 2× working concentration in the appropriate Kinase Buffer. The 2×ABL1 polypeptide/Tyr 02 substrate peptide mixture is prepared in 50 mM HEPES pH 7.5, 0.01% BRIJ-35, 10 mM MgCl2, 1 mM EGTA. The final 10 μL Kinase Reaction contains 0.3-1.2 ng ABL1 (or 1.36-6 ng ABL1(T315I)) and 2 μM Tyr 02 in 50 mM HEPES, pH 7.5, 0.01% BRIJ-35, 10 mM MgCl2, 1 mM EGTA. After the 1-hour Kinase Reaction incubation, 5 μL of a 1:128 dilution of Development Reagent A is added. The ABL1(wt) polypeptide utilized for the assay described in this Example was the “isoahABL1(wt)” polypeptide described herein (SEQ ID NO:4), which is referred to as “ABL1” in Table 1 and “ABL1(wt)” or “WT” in Table 3 of this Example. The ABL1 variant polypeptides utilized contained the same polypeptide as the “isoahABL1(wt)” polypeptide except that each contained one corresponding amino acid substitution chosen from E255K, F317I, F317L, G250E, T315I or Y253F. […]
(§7) All ATP Solutions are diluted to a 4× working concentration in Kinase Buffer (50 mM HEPES, pH 7.5, 0.01% BRIJ-35, 10 mM MgCl2, 1 mM EGTA). The ATP Km apparent (Km app) is previously determined using a Z′-LYTE assay.
(§8) Bar-coded Corning, low volume NBS, black 384-well plate (Corning Cat. #4514) • 1. […] Read on fluorescence plate reader and analyze the data
A known inhibitor control standard curve, 10-point titration, is run for each individual kinase on the same plate as the kinase to ensure the kinase is inhibited within an expected IC50 range previously determined. […]

In a further assay the test system is K562. In words: In vitro cytotoxic activity (CellTiterGlo), K562 (CML). Type of assay: cell-based. Conditions: Homo sapiens, 48-hours, read-out: K562 LD50. How it is done: as §1, §2
A further assay has as its target T1, ABL1 T315I (Homo sapiens, UniProt P00519, T315I).
T1 construct: The ABL1 variant polypeptides utilized contained the same polypeptide as the “isoahABL1(wt)” polypeptide except that each contained one corresponding amino acid substitution
The experiment in a line: Z′-LYTE assay, ABL1 T315I. Format: biochemical.
Description: as §3, §4, §5, §6, §7, §8

Consider `Cc1ccc(Nc2ncc3cccc(-c4ccc(F)cc4OC(C)C)c3n2)cc1NC(=O)c1ccc(C(=O)N(C)C)cc1` [Cmpd11, N1-(5-((8-(4-fluoro-2-isopropoxyphenyl)quinazolin-2-yl)amino)-2-methylphenyl)-N4,N4-dimethylterephthalamide], for which the IC50 with NALM-21 was 446 nM; at ABL1(wt) (class by IC50 values in Table 5, read-out: inhibitor class of ABL1(wt) according to IC50) it was less than 20 nM; on ABL1(wt) (test compounds, Z′-LYTE, read-out: IC50 values for test compounds, ABL1(wt)), 2.93 nM; with K562 it was 403 nM; at ABL1 T315I (class by IC50 values in Table 5, read-out: inhibitor class of ABL(T315I) according to IC50), less than 20 nM; on ABL1 T315I (test compounds, Z′-LYTE, read-out: IC50 values for test compounds, ABL1(T315I)), 1.89 nM.
